Values after ≈ are worked out from the molar mass of the structure shown.

Consider one compound from patent publication US6563002B2, “Biscyclopropanecarboxamide compounds and pharmaceutical use thereof” (Ajinomoto Co., Inc., priority 1999, dated 2003).

The test system of this assay is NF-kappa B. Briefly: Evaluation of inhibition of NF-kappa B: β-gal reporter in immortalized HUVEC induced with IL-1β. In kind it is cell-based. Particulars: Homo sapiens; HUVEC with NF-kappa B-driven β-gal reporter; 1 ng/ml IL-1β added 30 minutes after compound; β-gal activity determined 16 hours after; read-out: NFkB inhibiting activity IC50. The text has this: Evaluation of Inhibition of NF-Kappa B:
Cells used in the tests were obtained by stably introducing E. coli β-galactosidase (β-gal) genes into human normal umbilical vein endothelial cells (HUVEC) immortalized with SV 40 large T antigen. The genes were those driven by SV40 minimum promoter fused with 6 times of the NF-kappa B binding motif derived, from immunoglobulin kappa light-chain enhancer. The cells were subcultured in RPMI medium containing 10% of FBS, and spread on 96-well plates in a concentration of 1×10^4/well the day before the initiation of the experiments. The compound of the present invention was dissolved in DMSO in a suitable concentration and fed into the 96-well plates so that the final concentration of DMSO would be not higher than 1%. 30 minutes after the addition of the compound, NF-kappa B activity was induced with 1 ng/ml of IL-1β in each well. The β-gal activity was determined 16 hours after. The β-gal activity was determined with a chemical photogenic substrate (Galacton-Light-Plus: Boehringer Mannheim) according to the protocol attached to the reagent.

Usually IC50 stands for the concentration that gives 50% inhibition. Consider `CC1(C)CC1C(=O)Nc1ccc(C(O)c2ccccc2)cc1NC(=O)C1CC1(C)C` (stereo not shown) [Example 2], for which the IC50 worked out at 1 µg/mL (≈ 2.46 µM).
